In EP0877740B1, “THIOL DERIVATIVES WITH METALLOPEPTIDASE INHIBITORY ACTIVITY” (ZAMBON GROUP S.p.A., priority 1995, dated 1997):

Legend:
ACE = target: T1, ACE (Oryctolagus cuniculus, UniProt P12822); assay: In vitro ACE-inhibitory activity (FAPGG substrate, spectrophotometric); assay type: biochemical; details: ACE purified by lung rabbit, FAPGG 0.8 mM, 37°C
T1 construct: ACE (250 mU/ml purified by lung rabbit, EC 3.4.15.1 SIGMA); purchased SIGMA; host or cells: rabbit lung (tissue-purified)
T1 sequence (P12822 34-1310): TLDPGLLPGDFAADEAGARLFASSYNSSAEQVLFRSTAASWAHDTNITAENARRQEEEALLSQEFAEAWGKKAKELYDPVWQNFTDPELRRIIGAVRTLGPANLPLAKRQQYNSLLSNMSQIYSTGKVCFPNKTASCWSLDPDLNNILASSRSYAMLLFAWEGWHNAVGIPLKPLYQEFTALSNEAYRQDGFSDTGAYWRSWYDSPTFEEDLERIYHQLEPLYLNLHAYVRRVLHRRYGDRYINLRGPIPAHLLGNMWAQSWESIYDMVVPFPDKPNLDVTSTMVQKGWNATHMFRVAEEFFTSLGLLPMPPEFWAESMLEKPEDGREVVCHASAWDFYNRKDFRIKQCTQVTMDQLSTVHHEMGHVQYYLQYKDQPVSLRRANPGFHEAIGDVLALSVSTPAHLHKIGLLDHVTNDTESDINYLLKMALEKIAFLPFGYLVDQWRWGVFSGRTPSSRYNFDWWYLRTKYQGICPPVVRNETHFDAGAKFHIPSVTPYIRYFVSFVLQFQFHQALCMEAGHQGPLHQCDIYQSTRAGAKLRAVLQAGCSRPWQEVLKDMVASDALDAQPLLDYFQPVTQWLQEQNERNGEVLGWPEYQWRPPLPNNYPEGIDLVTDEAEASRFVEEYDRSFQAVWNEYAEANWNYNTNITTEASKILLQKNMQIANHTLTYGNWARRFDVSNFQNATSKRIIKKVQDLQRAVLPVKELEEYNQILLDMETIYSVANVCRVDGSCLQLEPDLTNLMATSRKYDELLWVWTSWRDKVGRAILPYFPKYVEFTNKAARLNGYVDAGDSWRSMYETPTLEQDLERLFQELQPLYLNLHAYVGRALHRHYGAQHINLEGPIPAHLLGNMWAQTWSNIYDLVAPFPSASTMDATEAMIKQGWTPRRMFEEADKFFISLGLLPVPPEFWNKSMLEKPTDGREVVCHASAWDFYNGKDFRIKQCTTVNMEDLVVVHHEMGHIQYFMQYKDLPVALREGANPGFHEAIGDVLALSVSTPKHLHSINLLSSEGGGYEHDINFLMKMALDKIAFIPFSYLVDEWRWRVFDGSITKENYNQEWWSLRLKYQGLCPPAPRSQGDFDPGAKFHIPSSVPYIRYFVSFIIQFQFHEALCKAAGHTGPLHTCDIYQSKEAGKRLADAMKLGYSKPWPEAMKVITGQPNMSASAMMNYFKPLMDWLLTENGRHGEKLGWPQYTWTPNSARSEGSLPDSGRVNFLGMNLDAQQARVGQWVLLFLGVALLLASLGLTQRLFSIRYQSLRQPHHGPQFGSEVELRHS
Description: […] of ACE (250 mU/ml purified by lung rabbit, EC 3.4.15.1 SIGMA) were preincubated with 50 µl of the compound of formula I or of the reference compound or related vehicle in thermostated cuvettes at 37°C.
The reaction was started by adding furylacryloylphenylalanylglycylglycine 0.8 mM (FAPGG-SIGMA).
Contemporaneously, by using a Beckman DU-50 spectrophotometer provided with a program for calculating delta A/minutes and regression coefficients of the enzyme kinetics curves, the absorbance at 340 nm was recorded in continuo for 5 minutes.
The percentage of the enzyme inhibition in the preparations treated with the compounds of formula I or with the comparative compounds with respect to the untreated preparations was expressed as IC50 (nM) value.

NEP = target: T2, NEP (Rattus norvegicus, UniProt P07861); assay: In vitro NEP-inhibitory activity in rat kidney cortex membranes ([3H][Leu5]-enkephaline hydrolysis); assay type: biochemical; set-up: Kidneys were removed from male Sprague-Dawley rats weighing approximately 300 g; from tissue; host or cells: rat kidney cortex membranes (male Sprague-Dawley); details: [3H][Leu5]-enkephaline 15 nM, 30°C
T2 sequence (P07861 1-750): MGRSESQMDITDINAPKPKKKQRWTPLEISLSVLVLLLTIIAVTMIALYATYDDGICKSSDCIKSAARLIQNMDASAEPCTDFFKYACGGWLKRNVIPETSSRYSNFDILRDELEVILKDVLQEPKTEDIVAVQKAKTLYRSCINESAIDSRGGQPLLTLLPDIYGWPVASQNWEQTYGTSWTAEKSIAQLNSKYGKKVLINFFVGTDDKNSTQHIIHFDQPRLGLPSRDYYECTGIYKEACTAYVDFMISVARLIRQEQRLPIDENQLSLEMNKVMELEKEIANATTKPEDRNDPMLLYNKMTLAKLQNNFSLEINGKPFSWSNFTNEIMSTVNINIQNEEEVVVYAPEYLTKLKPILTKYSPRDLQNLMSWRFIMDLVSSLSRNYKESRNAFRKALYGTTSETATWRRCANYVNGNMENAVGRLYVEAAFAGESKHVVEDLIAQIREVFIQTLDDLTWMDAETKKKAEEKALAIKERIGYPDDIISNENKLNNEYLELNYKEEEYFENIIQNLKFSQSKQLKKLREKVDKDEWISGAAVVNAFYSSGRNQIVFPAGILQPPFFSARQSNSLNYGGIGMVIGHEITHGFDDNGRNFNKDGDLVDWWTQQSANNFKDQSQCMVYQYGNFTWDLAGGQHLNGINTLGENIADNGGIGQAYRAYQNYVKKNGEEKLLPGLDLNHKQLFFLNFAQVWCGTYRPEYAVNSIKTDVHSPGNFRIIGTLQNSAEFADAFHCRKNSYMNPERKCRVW
Description: The NEP-inhibitory activity was evaluated in rat kidney cortex membranes prepared according to the procedure described by T. Maeda et al. in Biochim. Biophys.
Kidneys were removed from male Sprague-Dawley rats weighing approximately 300 g and kept at 4°C.
Kidney cortex was carefully dissected, finely minced and suspended in a homogenization buffer (10 mM sodium phosphate pH 7.4 containing 1 mM MgCl2, 30 mM NaCl, 0.02% NaN3) 1:15 weight/volume.
The tissue was then cold homogenized for 30 seconds using an Ultra-Turrax homogenizer.
The membranes were collected from the buffer/sucrose interface, washed twice with 50 mM TRIS/HCl buffer (pH 7.4) and resuspended into the same buffer for storage in small aliquots at -80°C until use.
The NEP-inhibitory activity was evaluated by using the method described by C.
Aliquots of the membrane suspension prepared as above described (concentration 5 µg/ml of proteins) were preincubated in the presence of an aminopeptidase inhibitor (Bestatin - 1 mM) for 10 minutes at 30°C.
Incubation (20 minutes at 30°C) was stopped by adding HCI 0.1M (100 µl).
The formation of the metabolite [^3H]Tyr-Gly-Gly was quantified by chromatography on polystyrene columns (Porapak Q).
The percentage of inhibition of the metabolite formation in the membrane preparations treated with the compounds of formula I and with the comparative compounds with respect to the untreated membrane preparations was expressed as IC50 (nM) value.

IC50 (ACE): 3.2 nM
IC50 (NEP): 1.8 nM
SMILES: O=C(N[C@@H](Cc1ccc(-c2nccs2)cc1)C(=O)O)[C@@H](CS)Cc1ccccc1 [Compound 16, N-[(2S)-3-mercapto-2-phenylmethylpropionyl]-4-(2-thiazolyl)-L-phenylalanine]
